Results taken from ChEMBL document CHEMBL1201862, “PubChem BioAssay data set” (2004).
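Dose response: 5 concentrations. Exposure: 48 h. Format: 96-well plates. Endpoint: linear interpolation; highest concentration if not reached. GI50 is the concentration that inhibits growth by half.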 Calls of active or inactive are those of the source. Cut-off read from the data, not from the text of the source: active = GI50 up to about 1.1 µM and inactive = higher.

How the values were obtained:
Experiment in all cases: inhibition of tumour cell growth, NCI panel, 48 h
[1] = system: M14
[2] = system: MDA-MB-231
[3] = system: IGROV-1
[4] = system: UACC-62
[5] = system: OVCAR-4
[6] = system: SNB-75
[7] = system: DU-145
[8] = system: UO-31
[9] = system: NCI-H460
[10] = system: K562
[11] = system: NCI-H23
[12] = system: T47D
[13] = system: SK-OV-3
[14] = system: COLO 205
[15] = system: MDA-N
[16] = system: A498
[17] = system: SNB-19
[18] = system: SF-268
[19] = system: OVCAR-8
[20] = system: LOX IMVI

Measured: GI50

Cc1c(-c2ccccc2)nn2cc(-c3ccccc3)nnc12
inactive: [1] 22.6 µM | [2] 18.3 µM | [3] 21.7 µM | [4] 17.9 µM | [5] 44.5 µM | [6] 20.7 µM | [7] 30.4 µM | [8] 29.1 µM | [9] 16.9 µM | [10] 31 µM | [11] 31.9 µM | [12] 61.2 µM | [13] 39.3 µM | [14] 22.2 µM | [15] 19.7 µM | [16] 56.6 µM | [17] 40.8 µM | [18] 28.6 µM | [19] 67.3 µM | [20] 19 µM

Cc1ccc(NC(=O)c2cc(S(=O)(=O)Nc3n[nH]c(=O)n3-c3ccccc3)c(S)cc2Cl)cc1
inactive: [1] > 100 µM | [2] > 100 µM | [3] > 100 µM | [4] > 100 µM | [5] > 100 µM | [6] > 100 µM | [7] > 100 µM | [8] > 100 µM | [9] > 100 µM | [10] > 100 µM | [11] > 100 µM | [12] > 100 µM | [13] > 100 µM | [14] > 100 µM | [15] > 100 µM | [16] > 100 µM | [17] > 100 µM | [18] > 100 µM | [19] > 100 µM | [20] > 100 µM

c1ccc2c(c1)Sc1nccc3ccnc-2c13
inactive: [1] 79.1 µM | [2] > 100 µM | [3] 27.7 µM | [4] 23.3 µM | [5] 59.2 µM | [6] 15.2 µM | [7] > 100 µM | [8] 7.5 µM | [9] 5.57 µM | [10] 71.3 µM | [11] 36.8 µM | [12] 27.7 µM | [13] > 100 µM | [14] 48.3 µM | [15] 57.3 µM | [16] 16.6 µM | [17] 20.7 µM | [18] 18.7 µM | [19] 21.9 µM | [20] 28.9 µM

Cc1nc(N)sc1/N=N/c1ccccc1Br
inactive: [1] 37.7 µM | [2] 37.3 µM | [3] 24.1 µM | [4] 28.6 µM | [5] > 35.3 µM | [6] 10.3 µM | [7] 34.7 µM | [8] 31 µM | [9] 22.9 µM | [10] > 65.9 µM | [11] 28.2 µM | [12] 15.8 µM | [13] > 57.7 µM | [14] > 54.7 µM | [15] 27.9 µM | [16] 14.2 µM | [17] > 44.5 µM | [18] 17.2 µM | [19] > 54.3 µM | [20] > 48.9 µM

COC(=O)n1c(=O)n(-c2ccccc2)c(=O)n1C(=O)OC
inactive: [1] > 100 µM | [2] > 100 µM | [3] > 100 µM | [4] > 100 µM | [5] > 100 µM | [6] 51.2 µM | [7] > 100 µM | [8] > 100 µM | [9] > 100 µM | [10] > 100 µM | [11] > 100 µM | [12] > 100 µM | [13] > 100 µM | [14] > 100 µM | [15] > 100 µM | [16] > 100 µM | [17] > 100 µM | [18] > 100 µM | [19] > 100 µM | [20] > 100 µM

Cc1cc(C)c2nccc(NCCCN(C)C)c2c1[N+](=O)[O-]
inactive: [1] 19.1 µM | [2] 51.1 µM | [3] 19.6 µM | [4] 34.1 µM | [5] 13.8 µM | [6] 24.9 µM | [7] 44.2 µM | [8] 20.3 µM | [9] 26.8 µM | [10] 31 µM | [11] 19.2 µM | [12] 33.3 µM | [13] > 100 µM | [14] 14.8 µM | [15] 38.8 µM | [16] 59 µM | [17] > 100 µM | [18] 33 µM | [19] 37.6 µM | [20] 18.6 µM

CC(=O)Oc1ccc(/C=C/C(=O)O[C@@H](C(=O)O)[C@@H](OC(=O)/C=C/c2ccc(OC(C)=O)c(OC(C)=O)c2)C(=O)O)cc1OC(C)=O
inactive: [1] > 100 µM | [2] > 100 µM | [3] > 100 µM | [4] > 100 µM | [5] > 100 µM | [6] 82.8 µM | [7] > 100 µM | [8] > 100 µM | [9] > 100 µM | [10] > 100 µM | [11] > 100 µM | [12] > 100 µM | [13] > 100 µM | [14] > 100 µM | [15] > 100 µM | [16] > 100 µM | [17] > 100 µM | [18] > 100 µM | [19] > 100 µM | [20] > 100 µM
